Test results taken from patent publication EP2802310B1, “NEW USE OF ZERUMBONE AND COMPOSITIONS COMPRISING ZERUMBONE” (Sederma, priority 2012, dated 2013).
Like-named read-outs stand apart in the source and are kept apart here.

What was measured:
elastase = experiment: Dermal destruction by proteases in skin explants, elastase; conditions: 18ppm of zerumbone co-injected with the protease; five days at 37°C; confocal microscope
Description: (§1) Principle: Once prepared, skin explants (person, abdominal skin) received an injection of elastase or collagenase that could proteolyse 30 µmol/min of elastin or collagen. In another case, the invention product (titrated at 18ppm of zerumbone) was co-injected with the protease to assess its ability to inhibit the proteolysis of constituents of the dermis, and thus of protection of the dermis. After five days of incubation at 37°C, the result was observed through a confocal microscope and compared to what was obtained in the case without protease at the same depth (60 µm).

IL6 = IL6 synthesis by ELISA in adipocyte supernatants; type: cell-based; conditions: Homo sapiens
Description: Human preadipocytes were seeded and induced to differentiate in the presence of a cocktail of specific inducers and the evaluated products. At the end of differentiation (at 7 and 10 days), the IL6 content synthetized by the adipocytes is measured in the culture supernatants by ELISA method. Furthermore, after 10 days of differentiation, mature adipocytes are placed in contact of the products during 72h and the IL6 content is also measured in the cellular supernatants. In parallel, survival estimation was realized on these two assays (Hoechst tests).

Mature human adipocytes [1] = experiment: Lipolytic effect, daily titration of released glycerol over 3 days; type: cell-based; conditions: Homo sapiens, Adipocyte, Zerumbone 6ppm, read-out: released glycerol, versus negative control
Description: (§2) Mature human adipocytes were treated with zerumbone to evaluate daily for 3 days. A daily titration of the released glycerol, reflecting lipolysis, was measured in the medium, before the media were changed in order to monitor the long-term effect.
In a second test, mature human adipocytes were treated with the product to evaluate daily for 3 days. A daily titration of the released glycerol was performed in the media, just before changing of the media in order to monitor the long term effect. Table 19: Comparison of the lipolytic effect of caffeine, zerumbone and of a mixture of caffeine and zerumbone on hypertrophied adipocytes in monolayer (n=4) at short and long term.

elastin = experiment: Elastin synthesis in fibroblasts under NO stress, ELISA; type: cell-based; conditions: Homo sapiens, Fibroblast, NHF, compared to the control case following the same NO, read-out: protection of elastin synthesis
Human preadipocytes [2] = experiment: Anti-differentiating effect, intracellular G3PDH activity, human preadipocytes; type: cell-based
Description: Human preadipocytes were plated and induced to differentiate at confluence in the presence of a cocktail of specific inducers and the evaluated products. After 10 days, the layers were crushed and intracellular G3PDH activity was assayed. A cell quantification test (Hoechst) on the same extracts complements the assay.

Fibromodulin = Fibromodulin synthesis in NHF, ELISA; type: cell-based, human; conditions: two days
Description: (§3) Principle: NHFs were put into contact with the product of the invention for two days (fibromodulin) or three days (dermatopontin). The supernatants were then assayed using ELISA tests. At the same time, the number of cells was quantified using the Hoechst method.

adiponectin = experiment: Adiponectin synthesis by ELISA, 3 days contact; type: cell-based, Human
Description: Human preadipocytes were plated and induced to differentiate at confluence in the presence of a cocktail of specific inducers. After 10 days of differentiation, the cells are purged from inducers in their basis medium and left in contact with the products for 3 days in this medium. After contact, the supernatants were collected and the adiponectin amount was measured by ELISA.

mature adipocytes = experiment: Intracellular triglyceride quantity in mature adipocytes; type: cell-based, human; conditions: Zerumbone 6ppm
Description: as §2
Table 5: comparison of the intracellula triglyceride quantity found in mature adipocytes
Table 20: Comparison of the intracellular triglyceride content found in the mature adipocytes; compared effect of zerumbone, caffeine and of a mixture of zerumbone and caffeine.

[3] = test system: Murine 3T3-L1 fibroblasts; experiment: Anti-differentiating effect on adipocytes, intracellular G3PDH activity, 3T3-L1 line; type: cell-based
Description: Murine 3T3-L1 fibroblasts were seeded and induced to differentiate into adipocytes for 6 days with specific inducers in the presence of the evaluated products. When mature adipocytes were obtained, layers were crushed and intracellular G3PDH ([…]) activity is measured. A cell quantification test (Hoechst) on the same extracts complements the assay.

collagenase = experiment: Dermal destruction by proteases in skin explants, collagenase; conditions: 18ppm of zerumbone co-injected with the protease; five days at 37°C; confocal microscope
Description: as §1

Dermatopontin = Dermatopontin synthesis in NHF, ELISA; type: cell-based, human; conditions: three days
Description: as §3

Mature human adipocytes [4] = experiment: Lipolytic effect, released glycerol after 3 hours; type: cell-based; conditions: Adipocyte, Zerumbone 6ppm, contact time 3h, read-out: released glycerol, versus negative control
Description: In a first test, mature human adipocytes were treated with the product to evaluate for 3 hours, then titration of the released glycerol, reflecting lipolysis, was measured in the medium.

MMP1 = MMP1 synthesis in NHF after UVA, ELISA; type: cell-based, human; conditions: 24h before and 24h after UVA
Description: Principle: NHFs were put into contact with the product of the invention for 24h, and then were radiated with UVA rays to trigger an experimental increase in MMP1 synthesis. The cells once again received the product for 24h and the supernatants were assayed using ELISA tests. At the same time, the number of cells was quantified using the Hoechst method.

Human preadipocytes [5] = experiment: Triglyceride content after preadipocyte differentiation (glycerol released after lipase); type: cell-based; conditions: 10 days
Description: Human preadipocytes were plated and induced to differentiate at confluence in the presence of a cocktail of specific inducers and evaluated products. After 10 days, the triglyceride content of the culture was estimated by measuring the released glycerol after the action of a lipase.

[6] = 72 h, adipocytes after differenciation (3days), read-out: IL6 % Var / control

SMILES: C/C1=C\CC(C)(C)/C=C/C(=O)/C(C)=C/CC1 [Zerumbone, 2E, 6E, 9E-Humulatrien-8-one]
- integrity of the dermis under elastase stress (elastase): retains its integrity
- inhibition at 3 ppm (IL6; [6]): 33%
- inhibition at 5 ppm (IL6; [6]): 31%
- inhibition at 3 ppm (IL6; 240 h, adipocytes in the course of differenciation (10days), read-out: IL6 % Var / control): 49%
- inhibition at 5 ppm (IL6; 240 h, adipocytes in the course of differenciation (10days), p=0.09, read-out: IL6 % Var / control): 50%
- activation at 6 ppm (Mature human adipocytes [1]; 24 h, contact time 1 day): 72%
- activation at 6 ppm (Mature human adipocytes [1]; 48 h, contact time 2 days): 141%
- activation at 6 ppm (Mature human adipocytes [1]; 72 h, contact time 3 days): 246%
- activation at 5 ppm (elastin): 179%
- [G3PDH] (Human preadipocytes [2]; 0.5ppm, 10 days): 144 +/- 15 mU/ 10^6 cell
- [G3PDH] (Human preadipocytes [2]; 1ppm, 10 days): 106 +/- 14 mU/ 10^6 cell
- [G3PDH] (Human preadipocytes [2]; 3ppm, 10 days): 30 +/- 2 mU/ 10^6 cell
- G3PDH activity and human preadipocytes differentiation (Human preadipocytes [2]; 5 ppm of extract): complete inhibition
- [G3PDH] (Human preadipocytes [2]; 5ppm, 10 days): 15 +/- 3 mU/ 10^6 cell
- inhibition at 0.5 ppm (Human preadipocytes [2]; Homo sapiens, 240 h, 0.5ppm, 10 days, read-out: [G3PDH] % Var / control): 18%
- inhibition at 1 ppm (Human preadipocytes [2]; Homo sapiens, 240 h, 1ppm, 10 days, read-out: [G3PDH] % Var / control): 39%
- inhibition at 3 ppm (Human preadipocytes [2]; Homo sapiens, 240 h, 3ppm, 10 days, read-out: [G3PDH] % Var / control): 83%
- inhibition at 5 ppm (Human preadipocytes [2]; Homo sapiens, 240 h, 5ppm, 10 days, read-out: [G3PDH] % Var / control): 91%
- Fibromodulin (Fibromodulin; 5 ppm): 51.4 ± 13.4 ng/106cell.
- activation at 5 ppm (Fibromodulin; Homo sapiens, 48 h, read-out: Fibromodulin % Variation): 268%
- [Adiponectin] (adiponectin; 2ppm): 221.4 +/- 24.5 ng/10^E6 cell
- [Adiponectin] (adiponectin; 6ppm): 19.0 +/- 0.6 ng/10^E6 cell
- activation at 2 ppm (adiponectin; Homo sapiens, 72 h, 2ppm, read-out: [Adiponectin] % Var / control): 45%
- activation at 6 ppm (adiponectin; Homo sapiens, 72 h, 6ppm, read-out: [Adiponectin] % Var / control): 95%
- inhibition at 6 ppm (mature adipocytes; Homo sapiens, Adipocyte, 72 h, read-out: Triglycerides Variation (%)): 37%
- Triglycerides (mature adipocytes): 4947 ± 236 µM/10^6cell.
- Triglycerides Variation (%) (mature adipocytes; 4320 min): -37%; p<0.01
- [G3PDH] ([3]; 1ppm, differentiation for 6 days): 304.2 +/- 9.9 mU/ 10^6 cell
- cytotoxicity ([3]; 3T3-L1, tested doses): without apparent cytotoxicity
- [G3PDH] ([3]; 3ppm, differentiation for 6 days): 79.3 +/- 43.6 mU/ 10^6 cell
- differentiation of 3T3-L1 ([3]; 5ppm): total inhibition
- [G3PDH] ([3]; 5ppm, differentiation for 6 days): 3.4+/-10.3 mU/ 10^6 cell
- inhibition at 1 ppm ([3]; Mus musculus, 3T3-L1, 144 h, 1ppm, differentiation for 6 days, read-out: [G3PDH] % Var / control): 53%
- inhibition at 3 ppm ([3]; Mus musculus, 3T3-L1, 144 h, 3ppm, differentiation for 6 days, read-out: [G3PDH] % Var / control): 88%
- inhibition at 5 ppm ([3]; Mus musculus, 3T3-L1, 144 h, 5ppm, differentiation for 6 days, read-out: [G3PDH] % Var / control): 99%
- integrity of the dermis under collagenase stress (collagenase): retains its integrity
- Dermatopontin (Dermatopontin; 5 ppm): 2540 ± 361 ng/106cell.
- activation at 5 ppm (Dermatopontin; Homo sapiens, 72 h, read-out: Dermatopontin % Variation): 137%
- activation at 6 ppm (Mature human adipocytes [4]): 0%
- MMP1 (MMP1; 5 ppm): 691 ± 225 ng/106cell.
- inhibition at 5 ppm (MMP1; Homo sapiens, Fibroblast, light or radiation study, read-out: MMP1 % Variation): 51%
- [TG] (Human preadipocytes [5]; 3ppm): 3562 +/- 233 µ U/ 10^6 cell
- [TG] (Human preadipocytes [5]; 5ppm): 2966 +/- 128 µ U/ 10^6 cell
- inhibition at 3 ppm (Human preadipocytes [5]; Homo sapiens, 240 h, 3ppm, read-out: [TG] % Var / control): 15%
- inhibition at 5 ppm (Human preadipocytes [5]; Homo sapiens, 240 h, 5ppm, read-out: [TG] % Var / control): 29%
